Test results taken from patent publication US9260425B2 (Genetech, Inc., priority 2011, dated 2016).
Read-outs that look alike come from different tables or passages of the source.

Assays:
Pim-1 = Pim-1 (Homo sapiens (Human), UniProt P11309); assay: Pim kinase binding activity assay (Example 901), PIM-1 enzyme, Caliper microfluidic peptide phosphorylation; assay type: biochemical; settings: 20 pM PIM-1, 10 μM ATP, 1 μM FAM-peptide, 90 minutes at room temperature
How it was run: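 The readout was microfluidic mobility-shift separation of a FAM-tagged Pim-specific peptide, excited at 488 nm and read at 530 nm, with Ki calculated from percent conversion. Reactions held 20 pM PIM-1, 1 μM peptide and 10 μM ATP in pH 7.2 HEPES/MgCl2/DTT buffer, ran 90 min at room temperature and were stopped with EDTA.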

BaF3 parental cells = assay: In vitro cell proliferation potency assay, BaF3 parental line with IL-3 (Cell Titer Glo); assay type: cell-based, murine; settings: Mus musculus, 2 ng/mL mIL-3, incubated overnight, read-out: Prolif. BaF3 IL3 (IC50)
Method: (§1) In Vitro Cell Proliferation Potency Assays
(§2) BaF3 parental line was obtained from the DSMZ repository. BaF3 lines transfected with PIM-1 or PIM-2 were generated. Mouse IL-3 was purchased from R&D Systems. G418 was purchased from Clontech. Media for BaF3 parental line contained RPMI, 10% FBS, 2 mM L-Glutamine, 2 ng/mL mIL-3. Media for BaF3 PIM1 & 2 lines contained RPMI, 10% FBS, 2 mM L-Glutamine, […]. Media for MM1.S (multiple myeloma cells) line contained RPMI, 10% FBS, 2 mM L-Glutamine.
(§3) BaF3, a murine interleukin-3 dependent pro-B cell line, parental cells, BaF3 PIM1 cells, BaF3 PIM-2 cells, and MM1.S (multiple myeloma) cells were seeded at 2 k/well, 5 k/well, 5 k/well, and 10 k/well respectively, in a 384-well plate, at 45 μL/well. Test compound was added at 5 μL/well. BaF3 cells (parental and transfected) were incubated overnight, while MM1.S cells were incubated for 72 hours at 37° C., 5% CO2. Cell Titer Glo Reagent (Promega) was added at 50 μL/well, the plates were incubated for 30 minutes, and their luminescence read on an HT Analyst. IC50/EC50 values for the test compound were calculated.

BaF3 PIM1 cells = assay: In vitro cell proliferation potency assay, BaF3 line transfected with PIM-1 (Cell Titer Glo); assay type: cell-based, murine; settings: incubated overnight, read-out: Prolif. BaF3 PIM-1 (IC50)
Method: as §1
as §2, with “BaF3 lines transfected with PIM-1 or PIM-2 were generated.” left out
as §3

[1] = tested on: MM1.S (multiple myeloma) cells; assay: In vitro cell proliferation potency assay, MM1.S cells (Cell Titer Glo); assay type: cell-based; settings: Homo sapiens, 72 hours, read-out: Prolif. MM1S ATP (EC50)
Method: as §1, §2, §3

Chain of Pim-1 (P11309 whole entry): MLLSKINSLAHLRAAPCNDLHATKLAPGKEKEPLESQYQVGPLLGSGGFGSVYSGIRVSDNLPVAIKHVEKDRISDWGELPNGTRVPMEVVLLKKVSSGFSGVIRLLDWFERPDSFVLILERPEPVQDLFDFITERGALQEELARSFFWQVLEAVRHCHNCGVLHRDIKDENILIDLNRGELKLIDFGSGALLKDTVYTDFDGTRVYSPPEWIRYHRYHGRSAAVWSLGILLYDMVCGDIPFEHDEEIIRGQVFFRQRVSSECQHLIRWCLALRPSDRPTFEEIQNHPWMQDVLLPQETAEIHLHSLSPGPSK

SMILES	Ki (Pim-1) [nM]	IC50 (BaF3 parental cells) [nM]	IC50 (BaF3 PIM1 cells; Mus musculus) [nM]	EC50 [1] [nM]	IC50 (BaF3 PIM1 cells) [nM]
CCn1cc(-c2cc3c(-c4cccc(N5CCNCC5)n4)n[nH]c3cn2)cn1 [Example 356, 5-(1-ethyl-1H-pyrazol-4-yl)-3-(6-(piperazin-1-yl)pyridin-2-yl)-1H-pyrazolo[3,4-c]pyridine]	0.073	5400	76.6	638	
N[C@H]1CCCN(c2cccc(-c3n[nH]c4cnc(-c5cccnc5)cc34)n2)C1 [Example 161, (S)-1-(6-(5-(pyridin-3-yl)-1H-pyrazolo[3,4-c]pyridin-3-yl)pyridin-2-yl)piperidin-3-amine]	0.0411	1400	731	281	
Cn1cc(-c2cc3c(-c4cccc(N5CCCC(C)(O)C5)n4)n[nH]c3cn2)cn1 (stereo not shown) [Example 383, 3-methyl-1-(6-(5-(1-methyl-1H-pyrazol-4-yl)-1H-pyrazolo[3,4-c]pyridin-3-yl)pyridin-2-yl)piperidin-3-ol]	0.078	1300	110	170	
N[C@@H]1CCCN(c2cccc(-c3n[nH]c4cnc(-c5cccnc5)cc34)n2)CC1 [Example 249, (R)-1-(6-(5-(pyridin-3-yl)-1H-pyrazolo[3,4-c]pyridin-3-yl)pyridin-2-yl)azepan-4-amine]	0.02	2500	518	191	
Cn1cc(-c2cc3c(-c4ccccc4F)n[nH]c3cn2)cn1 [Example 129, 3-(2-fluorophenyl)-5-(1-methyl-1H-pyrazol-4-yl)-1H-pyrazolo[3,4-c]pyridine]	7.85	5600	5200		
Cn1cc(-c2cc3c(-c4ccc(Br)c(N5CCC[C@H](N)C5)n4)n[nH]c3cn2)cn1 [Example 376, (S)-1-(3-bromo-6-(5-(1-methyl-1H-pyrazol-4-yl)-1H-pyrazolo[3,4-c]pyridin-3-yl)pyridin-2-yl)piperidin-3-amine]	0.009	4100	30.9	356	
N[C@H]1CCCN(c2cccc(-c3n[nH]c4cnc(-c5cccnc5)cc34)n2)CC1 [Example 248, (S)-1-(6-(5-(pyridin-3-yl)-1H-pyrazolo[3,4-c]pyridin-3-yl)pyridin-2-yl)azepan-4-amine]	0.048	1600	336	201	
N[C@H]1CCN(c2cncc(-c3cc4c(-c5ccccc5F)n[nH]c4cn3)c2)C1 [Example 190, (S)-1-(5-(3-(2-fluorophenyl)-1H-pyrazolo[3,4-c]pyridin-5-yl)pyridin-3-yl)pyrrolidin-3-amine]	0.27	1800	159	67.2	
N[C@@H]1CCCN(c2cncc(-c3cc4c(-c5ccccc5F)n[nH]c4cn3)n2)C1 [Example 153, (R)-1-(6-(3-(2-fluorophenyl)-1H-pyrazolo[3,4-c]pyridin-5-yl)pyrazin-2-yl)piperidin-3-amine]		2500	28	436	
Cc1cncc(-c2cc3c(-c4cccc(N5CCNCC5)n4)n[nH]c3cn2)n1 [Example 505, 5-(6-methylpyrazin-2-yl)-3-(6-(piperazin-1-yl)pyridin-2-yl)-1H-pyrazolo[3,4-c]pyridine]	0.01	2300	40.2	97.9	
NC[C@H]1CCN(c2cccc(-c3n[nH]c4cnc(-c5cccnc5)cc34)n2)C1 [Example 270, (R)-(1-(6-(5-(pyridin-3-yl)-1H-pyrazolo[3,4-c]pyridin-3-yl)pyridin-2-yl)pyrrolidin-3-yl)methanamine]		13100	478	707	
N[C@@H]1CCCN(c2cccc(-c3n[nH]c4cnc(-c5cccnc5)cc34)n2)C1 [Example 149, (R)-1-(6-(5-(pyridin-3-yl)-1H-pyrazolo[3,4-c]pyridin-3-yl)pyridin-2-yl)piperidin-3-amine]	0.027	1500	261	166	
Cc1ccc(-c2n[nH]c3cnc(-c4cccnc4)cc23)nc1N1CC[C@@H](N)C1 [Example 316, (R)-1-(3-methyl-6-(5-(pyridin-3-yl)-1H-pyrazolo[3,4-c]pyridin-3-yl)pyridin-2-yl)pyrrolidin-3-amine]	0.0549	1000	62.8	114	
N[C@H]1CCCN(c2cccc(-c3n[nH]c4cnc(-c5cncs5)cc34)n2)C1 [Example 349, (S)-1-(6-(5-(thiazol-5-yl)-1H-pyrazolo[3,4-c]pyridin-3-yl)pyridin-2-yl)piperidin-3-amine]		3400	681	393	
CCn1cc(-c2cc3c(-c4cccc(N5CCC[C@H](NC)C5)n4)n[nH]c3cn2)cn1 [Example 377, (S)-1-(6-(5-(1-ethyl-1H-pyrazol-4-yl)-1H-pyrazolo[3,4-c]pyridin-3-yl)pyridin-2-yl)-N-methylpiperidin-3-amine]	0.08	5300	63.7	230	
N[C@H]1CCCN(c2cncc(-c3cc4c(-c5ccccc5F)n[nH]c4cn3)n2)C1 [Example 152, (S)-1-(6-(3-(2-fluorophenyl)-1H-pyrazolo[3,4-c]pyridin-5-yl)pyrazin-2-yl)piperidin-3-amine]		2700	47.1	631	
CC(C)Cn1cc(-c2cc3c(-c4cccc(N5CCNCC5)n4)n[nH]c3cn2)cn1 [Example 381, 5-(1-isobutyl-1H-pyrazol-4-yl)-3-(6-(piperazin-1-yl)pyridin-2-yl)-1H-pyrazolo[3,4-c]pyridine]	0.057	2200	129	228	
NC1CCN(c2cccc(-c3n[nH]c4cnc(-c5cccnc5)cc34)n2)CC1 [Example 144, 1-(6-(5-(pyridin-3-yl)-1H-pyrazolo[3,4-c]pyridin-3-yl)pyridin-2-yl)piperidin-4-amine]	0.0839	3300	130	2200	
NC1CCN(c2nc(-c3n[nH]c4cnc(-c5cccnc5)cc34)ccc2Cl)CC1 [Example 241, 1-(3-chloro-6-(5-(pyridin-3-yl)-1H-pyrazolo[3,4-c]pyridin-3-yl)pyridin-2-yl)piperidin-4-amine]	0.096	1300	584	57.3	
Cn1cc(-c2cc3c(-c4cccc(N5CCC[C@H](N)C5)n4)n[nH]c3cn2)cn1 [Example 173, (S)-1-(6-(5-(1-methyl-1H-pyrazol-4-yl)-1H-pyrazolo[3,4-c]pyridin-3-yl)pyridin-2-yl)piperidin-3-amine]		5700		376	251
NC1CCN(c2cncc(-c3cc4c(-c5ccccc5F)n[nH]c4cn3)n2)CC1 [Example 147, 1-(6-(3-(2-fluorophenyl)-1H-pyrazolo[3,4-c]pyridin-5-yl)pyrazin-2-yl)piperidin-4-amine]	0.121	3900	368	60.4	
c1cc(-c2n[nH]c3cnc(-c4cnn(C5CCC5)c4)cc23)nc(N2CCNCC2)c1 [Example 390, 5-(1-cyclobutyl-1H-pyrazol-4-yl)-3-(6-(piperazin-1-yl)pyridin-2-yl)-1H-pyrazolo[3,4-c]pyridine]	0.132	5700	58.5	130	
c1ccc(-c2n[nH]c3cnc(-c4cccnc4)cc23)cc1 [Example 116, 3-phenyl-5-(pyridin-3-yl)-1H-pyrazolo[3,4-c]pyridine]		13700			
COCCn1cc(-c2cc3c(-c4cccc(N5CCNCC5)n4)n[nH]c3cn2)cn1 [Example 382, 5-(1-(2-methoxyethyl)-1H-pyrazol-4-yl)-3-(6-(piperazin-1-yl)pyridin-2-yl)-1H-pyrazolo[3,4-c]pyridine]		17000	274	3200	
Fc1ccccc1-c1n[nH]c2cnc(-c3cccnc3)cc12 [Example 117, 3-(2-fluorophenyl)-5-(pyridin-3-yl)-1H-pyrazolo[3,4-c]pyridine]		12900	18800		
N[C@@H]1CCCN(c2cccc(-c3n[nH]c4cnc(-c5cncs5)cc34)n2)C1 [Example 350, (R)-1-(6-(5-(thiazol-5-yl)-1H-pyrazolo[3,4-c]pyridin-3-yl)pyridin-2-yl)piperidin-3-amine]		3600	188	287	
